{"source": "patent US4436753A", "about": "“Method for therapy of ischemic disease” (Takeda Chemical Industries, Ltd., priority 1979, dated 1984)", "key": {"SHRSP [1]": {"system": "SHRSP", "assay": "Cerebral ischemia-protecting effect, carotid artery ligated on both sides", "format": "in vivo, rat", "from_the_text": "Spontaneously hypertensive rats showing a strong tendency to cerebral apoplexy (hereinafter abbreviated to SHRSP) (Okamoto et al., Circulation Res., vol. 34-35, pp. 1-143, 1974), were newly established in 1974. When the carotid artery is ligated on both sides, apoplectic symptoms such as convulsion fit, respiratory distress and coma, which lead to death (the incidence being 100%), are observed.\nThe time to the manifestation of the symptoms and the time to death were prolonged also by the administration of 100 mg/kg for 3 days or 35 mg/kg for 14 days."}, "[2]": {"assay": "2-week oral repeated dose toxicity (Reference Example 8)", "format": "in vivo", "conditions": "gum arabic suspension, 100 mg/kg or 500 mg/kg daily for 2 weeks", "description": "The compound of the present invention (I, n=10) was suspended in a gum arabic solution and oraly administered consecutively for 2 weeks at a daily dose of 100 mg/kg or 500 mg/kg, and examination of general condition, urinalysis and blood examination were carried out during the course of administration. Histopathology was done at the termination of the administration."}, "[3]": {"system": "Spontaneously hypertensive rats", "assay": "Protecting effect against heart failure (drug-induced cardiac insufficiency), spontaneously hypertensive rats", "format": "in vivo, rat", "conditions": "administration period 10 days"}, "SHRSP [4]": {"system": "SHRSP", "assay": "Antihypertensive action", "format": "in vivo, rat", "conditions": "35 mg/kg daily oral", "from_the_text": "| ^1 Each group consisted of 12 animals."}, "normal rat": {"system": "normal rat", "assay": "Preventing effect against development of malignant hypertension (unilateral kidney excision, desoxycorticosterone acetate, 1% sodium chloride)", "format": "in vivo", "conditions": "50 mg/kg oral twice a day", "description": "The kidney of each normal rat was unilaterally excised, and desoxycorticosterone acetate (10 mg/kg) was administered subcutaneously once a week. The rats were given a 1% aqueous sodium chloride solution as drinking water. On the day of operation and thereafter, the compound of the invention (I, n=10) was orally administered at a dose of 50 mg/kg twice a day, and the above indexes of aggravation were determined."}, "SHRSP [5]": {"system": "SHRSP", "assay": "Cerebral apoplexy preventing effect", "format": "in vivo, rat", "description": "The SHRSP, fed with high sodium chloride level, are liable to develop cerebral apoplexy (cerebral hemorrhage or hemorrhagic infarction) with high incidence. The compound of the invention (I, n=10) was administered in admixture with the diet to a group of 12 male SHRSP.\n^1 8week-old male SHRSP\n^2 14week-old male SHRSP\n^3 Number of apoplectic cases/number of animals used."}, "normal rats": {"system": "normal rats", "assay": "Protecting effect against heart failure (Adriamycin-induced), normal rats", "format": "in vivo, rat", "conditions": "Adriamycin 1 mg/kg/day i.p., compound 10 mg/kg/day oral, 10 days", "description": "Adriamycin (1 mg/kg/day) was intraperitoneally administered to normal rats and, after 2 weeks, the compound of the invention (I, n=10) (10 mg/kg/day) was orally administered, and the cardiac functional state was examined electrocardiographically and biochemically. […] In addition, the tissue lactic acid level, an index of myocardinal energy state, was lowered."}, "[6]": {"system": "bovine heart mitochondria deactivated by treatment with acetone (succinate oxidase activity)", "assay": "Mitochondrial respiration activating effect (succinate oxidase oxygen consumption)", "format": "biochemical", "conditions": "5 n mole added; 23° C.; succinate substrate; acetone-treated mitochondria", "description": "The effect of activating the respiration of bovine heart mitochondria deactivated by treatment with acetone was evaluated by the method of Lester and Fleischer (Biochim. Biophys. Acta, vol. 113, p. 519, 1966). The respiration activating effect was expressed in terms of oxygen consumption due to succinate oxidase activity, succinic acid being the substrate.\n*The rate was measured at 23° C. using an oxygen electrode\napparatus (Gilson's model KIC). Composition of the reaction medium (2 ml)\n0.2 M sucrose, 10 mM Trishydrochloric acid (pH 7.4), 20 mM KCl, 3 mM\nMgCl2, 50 μM EDTA.2Na, 1.99 mg (as protein) acetonetreated\nmitochondria, 50 μM potassium succinate, 0.2 mg cytochrome C, and 5\nμl 1% Nikkol OP10 ® (polyoxyethylene octylphenyl ether; Produced b\nNikko Chemicals) solution of the test sample (in the case of the test\nsample) or 5 μl 1% Nikkol OP10 ® (Polyoxyethylene octylphenyl\nether; Produced by Nikko Chemicals) (in the case of the control)."}, "SHRSP [7]": {"system": "SHRSP", "assay": "Improving effect on symptoms of cerebral apoplexy", "format": "in vivo, rat", "conditions": "100 mg/kg/day oral, 21 days after first symptom", "from_the_text": "SHRSP's were fed under sodium chloride loading as in Example 3. Upon manifestation of the first symptom, the sodium chloride loading was discontinued and at the same time oral administration of the compound of the invention (I, n=10) was commenced. After administration for 3 weeks, the dosed group was compared with the control group in respect of the severity of the symptoms. The severity was scored (0 for no symptoms to 5 for the severest) for each individual and the results were expressed in terms of the total score for the respective group. As shown by the results set forth in Table 4, the administration of the compound of the present invention alleviated the clinical symptoms after manifestation of the apoplexy. The body weight loss after the apoplexy was also depressed."}, "[8]": {"conditions": "Experiment 2, 100 mg/kg/day, 3 days"}, "[9]": {"conditions": "Experiment 3, 35 mg/kg/day, 14 days"}}}
{"smiles": "COC1=C(OC)C(=O)C(CCCCCCCCCCO)=C(C)C1=O", "note": "[I (n = 10), 2,3-dimethoxy-5-methyl-6-(10-hydroxydecyl)-1,4-benzoquinone]", "values": [{"measurement": "Time to convulsion fit", "setting": "SHRSP [1]; Experiment 1, 15 mg/kg/day oral, 21 days", "result": "119 ± 13", "unit": "min"}, {"measurement": "Time to convulsion fit", "setting": "SHRSP [1]; [8]", "result": "117 ± 15", "unit": "min"}, {"measurement": "Time to death", "setting": "SHRSP [1]; [8]", "result": "235 ± 27", "unit": "min"}, {"measurement": "Time to convulsion fit", "setting": "SHRSP [1]; [9]", "result": "93 ± 14", "unit": "min"}, {"measurement": "Time to death", "setting": "SHRSP [1]; [9]", "result": "242 ± 29", "unit": "min"}, {"measurement": "Abnormalities (general condition, urinalysis, blood examination, histopathology)", "setting": "[2]", "result": "could not reveal any abnormalities ascribable to the administration"}, {"measurement": "Heart lactic acid on wet weight basis", "setting": "[3]", "result": "1.9 ± 0.12", "unit": "µmol/g"}, {"measurement": "QRS width", "setting": "[3]", "result": "2.9 ± 0.2", "unit": "ms"}, {"measurement": "Blood pressure", "setting": "SHRSP [4]; day 0", "result": "175 ± 3", "unit": "mmHg"}, {"measurement": "Blood pressure", "setting": "SHRSP [4]; day 7", "result": "188 ± 4", "unit": "mmHg"}, {"measurement": "Blood pressure", "setting": "SHRSP [4]; day 14", "result": "199 ± 3", "unit": "mmHg"}, {"measurement": "Blood pressure", "setting": "SHRSP [4]; day 21", "result": "208 ± 4", "unit": "mmHg"}, {"measurement": "Body weight", "setting": "normal rat; day 0", "result": "224 ± 4", "unit": "g"}, {"measurement": "Urine protein", "setting": "normal rat; day 0", "result": "47 ± 1", "unit": "mg/day/250 g body weight"}, {"measurement": "Body weight", "setting": "normal rat; day 14", "result": "269 ± 8", "unit": "g"}, {"measurement": "Urine protein", "setting": "normal rat; day 14", "result": "225 ± 38", "unit": "mg/day/250 g body weight"}, {"measurement": "Body weight", "setting": "normal rat; day 21", "result": "274 ± 13", "unit": "g"}, {"measurement": "Urine protein", "setting": "normal rat; day 21", "result": "367 ± 68", "unit": "mg/day/250 g body weight"}, {"measurement": "Spontaneous manifestation of cerebral apoplexy (in words)", "setting": "SHRSP [5]; 10 SHRSP fed without sodium chloride loading", "result": "can prevent manifestation of cerebral apoplexy"}, {"measurement": "Incidence of cerebral apoplexy (number of apoplectic cases/number of animals used)", "setting": "SHRSP [5]; Experiment 1, sodium chloride loading +, 35 mg/kg/day in diet, 40 days, 8-week-old male SHRSP", "result": "7/12"}, {"measurement": "Incidence of cerebral apoplexy (number of apoplectic cases/number of animals used)", "setting": "SHRSP [5]; Experiment 2, no sodium chloride loading, 35 mg/kg/day, 45 days, 14-week-old male SHRSP", "result": "5/10"}, {"measurement": "Cerebral apoplexy compared with the control group (in words)", "setting": "SHRSP [5]; SHRSP fed with high sodium chloride level, compound in admixture with the diet, 12 male SHRSP", "result": "significantly (P<0.05 by Wilcoxon's two sample test) inhibited"}, {"measurement": "Heart lactic acid on wet weight basis", "setting": "normal rats", "result": "1.65 ± 0.1", "unit": "µmol/g"}, {"measurement": "QRS width", "setting": "normal rats", "result": "4.6 ± 0.4", "unit": "ms"}, {"measurement": "Oxygen consumption rate", "setting": "[6]", "result": "45.0 ± 3.7 Oxygen (n atom)/minute/mg prot"}, {"measurement": "Body weight loss", "setting": "SHRSP [7]", "result": "8 ± 3", "unit": "%"}, {"measurement": "Severity of symptoms (total score of group; 0 to 5 per individual)", "setting": "SHRSP [7]", "result": "20 ± 3"}]}
{"smiles": "COC1=C(OC)C(=O)C(CCCCCCCCCCCCCCCCCCO)=C(C)C1=O", "note": "[I (n = 18), 6-(18-hydroxyoctadecyl)-2,3-dimethoxy-5-methyl-1,4-benzoquinone]", "values": [{"measurement": "Oxygen consumption rate", "setting": "[6]", "result": "44.5 ± 3.2 Oxygen (n atom)/minute/mg prot"}]}
